# Laboratory results taken from article PMC7380166, “How to Study the Metabolism of New Psychoactive Substances for the Purpose of Toxicological Screenings—A Follow-Up Study Comparing Pooled Human Liver S9, HepaRG Cells, and Zebrafish Larvae” (Frontiers in Chemistry, 2020).
# Where two headings read alike, the source gives them in different places.
# Columns and labels:
# [1] = after subcutaneous administration of 1P-LSD to rats; ref Halberstadt et al., [2019]; cited from earlier work
# [2] = ref Wagmann et al., cited from earlier work; for Detection in pHLS9 [25 µM]: n = 2, according to literature; for Number of phase I metabolites detected, pHLS9 [25 μM] / Number of phase II metabolites detected, pHLS9 [25 μM]: [2019b]
# HepaRG cells = test: Incubations with HepaRG cells, metabolite identification by LC-HRMS/MS; type: in vitro ADME, human; conditions: for Absolute peak area, HepaRG [25 μM]: 25 μM parent NPS; for Absolute peak area, HepaRG [25 μM] / Absolute peak area, HepaRG [250 μM] / Number of phase I metabolites detected, HepaRG [25 μM] / Number of phase II metabolites detected, HepaRG [25 μM] / Number of phase I metabolites detected, HepaRG [250 μM] / Number of phase II metabolites detected, HepaRG [250 μM]: 24 h; for Absolute peak area, HepaRG [25 μM] / Absolute peak area, HepaRG [250 μM]: cell culture medium, one replicate of n = 3, n.d. = not detected; for Absolute peak area, HepaRG [250 μM]: 250 μM parent NPS; for Relative number of matches with the four most abundant signals in human plasma, HepaRG [25 μM] / Relative number of matches with the four most abundant signals in human plasma, HepaRG [250 μM] / Relative number of matches with the four most abundant signals in human urine, HepaRG [25 μM] / Relative number of matches with the four most abundant signals in human urine, HepaRG [250 μM]: human data for ephylone and 4F-PHP from Wagmann et al., [2019b]
# zebrafish larvae [3] = test: Zebrafish larvae exposure, metabolite identification by LC-HRMS/MS; conditions: for Absolute peak area, Zebrafish larvae [100 µM]: 100 µM parent NPS in medium, larvae 4 dpf, larvae extract, one replicate of n = 3, n.d. = not detected; for Absolute peak area, Zebrafish larvae [100 µM] / Number of phase I metabolites detected, Zebrafish larvae / Number of phase II metabolites detected, Zebrafish larvae: 24 h; for Number of phase I metabolites detected, Zebrafish larvae / Number of phase II metabolites detected, Zebrafish larvae: 100 μM in medium; for Relative number of matches with the four most abundant signals in human plasma, Zebrafish larvae / Relative number of matches with the four most abundant signals in human urine, Zebrafish larvae: larvae exposed to 100 μM, human data from Wagmann et al., [2019b]
# [4] = cited from earlier work
# [5] = Incubations with pooled human liver S9 fraction (pHLS9), metabolite identification by LC-HRMS/MS; type: in vitro ADME; conditions: human data for ephylone and 4F-PHP from Wagmann et al., [2019b]
# Description: According to published procedures (Richter et al., [2017b], [2019b]; Caspar et al., [2018b]; Wagmann et al., [2019b],[c]), the final incubation volume per reaction tube was 150 μl, with a final protein concentration of 2 mg/ml. The given concentrations represent final concentrations. A preincubation for 10 min at 37°C with UGT reaction mixture solution B (containing alamethicin, 25 μg/ml), MgCl2 (2.5 mM), NADP^+ (0.6 mM), isocitrate (2.5 mM), isocitrate dehydrogenase (0.8 U/ml), superoxide dismutase (100 U/ml), acetyl coenzyme A (0.1 mM), phosphate buffer (90 mM, pH 7.4), and pHLS9 (2 mg/ml) was done. Afterwards, UGT reaction mixture solution A (containing UDP glucuronic acid, 2.5 mM), PAPS (40 μM), SAM (1.2 mM), dithiothreitol (1 mM), and glutathione (10 mM) were added, as well as 25 μM 4F-MDMB-BINACA to start the reactions. The mixture was incubated for 360 min. Total amount of organic solvent in incubation mixtures was <2% (Chauret et al., [1998]). After 60 min, an aliquot of the reaction mixture (60 μl) was transferred in another reaction tube containing 20 μl of ice-cold acetonitrile to terminate the reactions. The remaining aliquot (90 μl) was incubated for an additional 300 min, and then the reactions were stopped by adding 30 μl of ice-cold acetonitrile. Thereafter, the reaction tubes were cooled at −20°C for 30 min prior to centrifugation at 18,407 × g for 2 min. The supernatants (50 μl) were transferred into autosampler vials, and 1 μl was injected onto the LC-HRMS/MS system. Control samples without pHLS9 and blank samples without substrate were prepared to confirm the absence of non-metabolically formed and interfering compounds, respectively. All incubations were performed in duplicate.
# According to a previous study (Richter et al., [2019a]), a Thermo Fisher Scientific (TF, Dreieich, Germany) Dionex UltiMate 3000 Rapid Separation (RS) UHPLC system with a quaternary UltiMate 3000 RS pump and an UltiMate 3000 RS autosampler controlled by the TF Chromeleon software version 6.8 was used. The LC system was coupled to an Orbitrap-based TF Q-Exactive Plus equipped with a heated electrospray ionization II (HESI-II) source. Calibration was done prior to analysis with a Positive Cal Mix (Supelco, Bellefonte, PA, USA) at a flow rate of 3 μl/min using a syringe pump. The conditions of the LC system were as follows: TF Accucore PhenylHexyl column (100 × 2.1 mm, 2.6 μm particle size); gradient elution with 2 mM ammonium formate solution containing 0.1% (v/v) formic acid (eluent A) and 2 mM ammonium formate solution in acetonitrile/methanol (50:50, v/v) containing 0.1% (v/v) formic acid, and 1% (v/v) water (eluent B). […] The following gradient was used: 0–1.0 min hold 1% B, 1–10 min to 99% B, 10–11.5 min hold 99% B, 11.5–13.5 min hold 1% B. The HESI-II source conditions were as follows: ionization mode, positive; heater temperature, 320°C; ion transfer capillary temperature, 320°C; sheath gas, 60 arbitrary units (AU); auxiliary gas, 10 AU; spray voltage, 4.00 kV; and S-lens RF level, 50.0. Mass spectrometry experiments were performed using high-resolution (HR) full scan mode and a targeted MS^2 mode with an inclusion list for each NPS. The inclusion list contained m/z values of metabolites, which were likely to be formed for example hydroxy, oxo, carboxy, dealkyl, demethylenylated, and defluorinated metabolites (phase I) as well as sulfates and glucuronides (phase II) and combinations of them. Full scan settings were as follows: resolution, 35,000; automatic gain control (AGC) target, 3e6; maximum injection time (IT), 120 ms; scan ranges, 3,4-DMA-NBOMe m/z 100–700, ephylone m/z 200–600, 4F-MDMB-BINACA m/z 150–700, 4F-PHP m/z 200–600, and 1P-LSD m/z 250–700. The settings for the targeted MS^2 mode with the respective inclusion lists were as follows: resolution, 17,500; AGC target, 2e5; maximum IT, 250 ms; loop count, 5; isolation window, 1.0 m/z; stepped normalized collision energy (NCE), 17.5, 35, 52.5%; pick others, enabled. […]
# zebrafish larvae [6] = test: In vivo maximum-tolerated concentration (MTC) study in zebrafish larvae; design: species or system zebrafish (Danio rerio); conditions: for Survival rate / Survival rates for all tested concentrations / Malformations: larvae 4 dpf; for Survival rate: 24-h treatment, fifteen larvae; for Survival rates for all tested concentrations: 0.01 to 100 μM; for Survival rates for all tested concentrations / Malformations: 24 h; for Concentration considered non-toxic for zebrafish larvae (4 dpf): 24 h exposure via medium; for Malformations: up to 100 μM
# Description: Internal protocols based on published standard methods (Westerfield, [2007]) were used to perform zebrafish husbandry and the maximum-tolerated concentration (MTC) testing was based on a previous study (Richter et al., [2019a]). Danieau's medium [17 mM NaCl, 2 mM KCl, 0.12 mM MgSO4, 1.8 mM Ca(NO3)2, 1.5 mM HEPES, pH 7.1–7.3, and 1.2 μM methylene blue] at 28°C was used to raise zebrafish larvae of the AB wild-type strain. For MTC testing, 96-well plates were used with 100 μl of medium and one larva per well. Drug exposition was started 4 dpf using 0, 0.01, 0.1, 1, 10, 50, or 100 μM final concentrations of 3,4-DMA-NBOMe, ephylone, 4F-MDMB-BINACA, 4F-PHP, or 1P-LSD, respectively. The drug exposure in the incubator at 28°C lasted 24 h. The final DMSO concentration was 1% (v/v) for all experiments. Monitoring of the larvae was done using a LEICA M205 FA stereo microscope (Leica Mikrosysteme Vertrieb GmbH, Wetzlar, Germany) to detect developmental defects and/or decreased survival rates. Fifteen larvae were used for each experiment.
# monooxygenases = conditions: initial monooxygenases activity screenings described elsewhere; ref Caspar et al., [2018a]; Wagmann et al., [2019b],[c]; cited from earlier work
Compound,"Absolute peak area, HepaRG [25 μM] (HepaRG cells)","Absolute peak area, HepaRG [250 μM] (HepaRG cells)","Absolute peak area, Zebrafish larvae [100 µM] (zebrafish larvae [3])","Relative number of matches with the four most abundant signals in human plasma, pHLS9 [25 μM] [5] [%]","Relative number of matches with the four most abundant signals in human urine, pHLS9 [25 μM] [5] [%]",Survival rate (zebrafish larvae [6]; 0.01 μM) [%],Survival rate (zebrafish larvae [6]; 0.1 μM) [%],Survival rate (zebrafish larvae [6]; 1 μM) [%],Survival rate (zebrafish larvae [6]; 10 μM) [%],Survival rate (zebrafish larvae [6]; 50 μM) [%],Survival rate (zebrafish larvae [6]; 100 μM) [%],Survival rates for all tested concentrations (zebrafish larvae [6]) [%],Concentration considered non-toxic for zebrafish larvae (4 dpf) (zebrafish larvae [6]) [µM],Malformations (zebrafish larvae [6]),"Number of phase I metabolites detected, pHLS9 [25 μM] [2]","Number of phase II metabolites detected, pHLS9 [25 μM] [2]","Number of phase I metabolites detected, HepaRG [25 μM] (HepaRG cells)","Number of phase II metabolites detected, HepaRG [25 μM] (HepaRG cells)","Number of phase I metabolites detected, HepaRG [250 μM] (HepaRG cells)","Number of phase II metabolites detected, HepaRG [250 μM] (HepaRG cells)",further results
"CCN(CC)C(=O)[C@@H]1C=C2c3cccc4[nH]cc(c34)C[C@H]2N(C)C1 [ML7, LSD]",8.59E+08,5.95E+09,1.25E+09,–,–,–,–,–,–,–,–,–,–,–,–,–,–,–,–,–,"Detection in rat plasma [1]: able to detect; Detection in pHLS9 [25 µM] ([2]; 1P-LSD and metabolites, 2019b): +; Detection in serum and urine samples of an intoxicated patient ([4]; after assumed consumption of a blotter containing 1P-LSD, ref Grumann et al., [2019]): able to find"
"CCCC(NCC)C(=O)c1ccc2c(c1)OCO2 (stereo not shown) [Ephylone, N-ethylnorpentylone]",6.38E+08,3.94E+09,3.57E+09,100,100,100,100,100,100,100,100,100,100,no malformations,"5 (Wagmann et al., [2019b])","8 (Wagmann et al., [2019b])",2,4,4,6,"Detection in pHLS9 [25 µM] ([2]; ephylone and metabolites, 2019a): +; Relative number of matches with the four most abundant signals in human plasma, HepaRG [25 μM] (HepaRG cells): 75%; Relative number of matches with the four most abundant signals in human plasma, HepaRG [250 μM] (HepaRG cells): 100%; Relative number of matches with the four most abundant signals in human urine, HepaRG [25 μM] (HepaRG cells): 75%; Relative number of matches with the four most abundant signals in human urine, HepaRG [250 μM] (HepaRG cells): 100%; Number of phase I metabolites detected, Zebrafish larvae (zebrafish larvae [3]): 5; Number of phase II metabolites detected, Zebrafish larvae (zebrafish larvae [3]): 4; Relative number of matches with the four most abundant signals in human plasma, Zebrafish larvae (zebrafish larvae [3]): 100%; Relative number of matches with the four most abundant signals in human urine, Zebrafish larvae (zebrafish larvae [3]): 100%; Monooxygenases involved in metabolism (monooxygenases): CYP1A2, CYP2B6, CYP2C19, and CYP3A4; Signals with the highest abundance in human plasma and/or urine ([4]; human biosamples after intake of ephylone and 4F-PHP, ref Wagmann et al., [2019b]): highest ephylone-related signals"
"CCCCC(C(=O)c1ccc(F)cc1)N1CCCC1 (stereo not drawn) [Metabolite 4F-PHP, 4-fluoro-alpha-pyrrolidinohexiophenone]",6.65E+08,5.45E+09,4.36E+09,75,75,100,100,100,100,100,100,100,100,no malformations,"6 (Wagmann et al., [2019b])","2 (Wagmann et al., [2019b])",5,0,6,1,"Detection in pHLS9 [25 µM] ([2]; 4F-PHP and metabolites, 2019a): +; Relative number of matches with the four most abundant signals in human plasma, HepaRG [25 μM] (HepaRG cells): 50%; Relative number of matches with the four most abundant signals in human plasma, HepaRG [250 μM] (HepaRG cells): 50%; Relative number of matches with the four most abundant signals in human urine, HepaRG [25 μM] (HepaRG cells): 25%; Relative number of matches with the four most abundant signals in human urine, HepaRG [250 μM] (HepaRG cells): 50%; Number of phase I metabolites detected, Zebrafish larvae (zebrafish larvae [3]): 8; Number of phase II metabolites detected, Zebrafish larvae (zebrafish larvae [3]): 3; Relative number of matches with the four most abundant signals in human plasma, Zebrafish larvae (zebrafish larvae [3]): 100%; Relative number of matches with the four most abundant signals in human urine, Zebrafish larvae (zebrafish larvae [3]): 75%; Monooxygenases involved in metabolism (monooxygenases): CYP1A2, CYP2B6, CYP2C19, and CYP3A4"
